# Measurements reported in article PMC4189421, “Induction of Oligodendrocyte Differentiation and In Vitro Myelination by Inhibition of Rho-Associated Kinase” (ASN NEURO, 2014).
# Like-named read-outs stand apart in the source and are kept apart here.
# What was measured:
# mouse Nph-OPCs = test: Cell proliferation as number of Hoechst-labeled nuclei; format: cell-based; conditions: 1 µM; n = 3 in triplicate wells; DMSO: 522 ± 126
# Excerpt: To determine the effects of ROCK inhibition on OPCs, we developed a high-content image morphological analysis of OPC differentiation using mouse embryonic neural progenitor-derived OPCs (Nph-OPCs). Neural progenitors grow as nonadherent spheroids known as neurospheres (Nph; [Chojnacki & Weiss, 2008]; [Tropepe et al., 1999]), which are considered to be a mixed population of neural stem cells and progenitors of the CNS ([Rao, 1999]; [Zhou & Chiang, 1998]). These cells have been previously used in multiple published studies for the generation of high-yield, high-purity cultures of OPCs from rodents ([Calaora et al., 2001]; [[…] al., 1997]; [Pedraza et al., 2008]). After 24 hr of plating on PDL-coated tissue culture plastic, Nph-OPCs were treated as indicated with differentiation stimuli and further incubated for 72 hr. […] Four images per well were analyzed using a neurite outgrowth module (Molecular Devices, Sunnyvale, CA). We quantified the number of branches and total outgrowth per cell (Figure 1). […] Additionally, nuclear staining by Hoechst allowed the accurate association of branches and processes to their corresponding cell bodies and permitted quantification of total cell numbers in each well. […]
# [1] = system: human pluripotent stem cell-derived OPCs (hSC-OPCs); test: Human stem cell-derived OPC differentiation assay (O4 staining, ArrayScan); format: cell-based; conditions: for EC50: Homo sapiens
# Method: Human oligodendrocytes were generated by a proprietary methodology of […] (Weizmann Science Park, Nes-Ziona, Israel; […].com). In brief, 5,000 human embryonic stem cell-derived OPCs (hES-OPCs) were seeded in each well of Matrigel and PDL-coated 96-well black μClear plates (Greiner, Frickenhausen, Germany). […] Twenty-four hours after seeding, medium was removed, and 200 μl of DIF fresh medium containing the compound of interest at a specific dilution (in 0.1% DMSO) was supplemented to the cells (first feeding). Total volume for each well was 200 μl. Four replicates were used for each dose of compound under study. After 48 hr, the media were replenished by removing 100 μl of media, and the same amount of fresh DIF media was added to the wells. Only at the first feeding, DIF media with 0.1% DMSO were used as control of the compound in medium containing 0.1% DMSO. Two experimental sets were conducted for the differentiation assay. On Day 21, live staining of oligodendrocytes was done by incubating the cells with O4 antibody (R&D Systems, Minneapolis, MN) for 20 min followed by detection with goat anti-mouse IgM-FITC (Chemicon) for additional 20 min. Cells were washed twice using DIF media. Immediately after, cells were fixed using 4% paraformaldehyde, and then washed with 1 × PBS, and 4',6-diamidino-2-phenylindole (DAPI; Sigma) was used for nuclear staining. […] Cellomics Neural profiling bioapplication was used for processing and analyzing the images. The 4-parameter Hill-Slope curve fittings were generated by GraphPad Prism software using the least squares fitting method, and EC50 values were calculated for the three major parameters of oligodendrocyte differentiation: number of differentiated oligodendrocytes, number of oligodendrocyte processes, and oligodendrocytes processes length (μm). The negative control groups of each experimental set were used for data normalization. We additionally studied the effect of ROCK inhibition in cultures of OPCs of human origin. […]
compound,measurement,setting,value
"C[C@@H](N)[C@H]1CC[C@H](C(=O)Nc2ccncc2)CC1.Cl.Cl [Y0503, trans-4-[(1 R)-1-aminoethyl]-N-4-pyridinylcyclohexanecarboxamide dihydrochloride]",Number of Hoechst-labeled nuclei,mouse Nph-OPCs,625 ± 88 cells/well
same,EC50,[1]; read-out: OLs processes count / well EC50,88.5 nM
same,EC50,[1]; read-out: OLs processes total length / well EC50,138 nM
same,Differentiation into O4-positive premyelinating stage,"[1]; hSC-OPCs treated 48 hr, 21 days culture",dose-response differentiation effect
